Measured values: US8686048B2, “Immunomodulator and anti-inflammatory compounds” (Rhizen Pharmaceuticals SA, priority 2010, dated 2014)

Key:
IL-17 = assay: Inhibition of IL-17 release from mouse splenocytes (PMA + ionomycin, ELISA); type: cell-based, Balb/c mice; details: Splenocyte, 10 μM, 3 h
Experimental: 2. Inhibition of IL-17 Release from Mouse Splenocytes:
Splenocytes isolated from Balb/c mice were re-suspended in RPMI medium at a concentration of 1×10^6 cells/ml and seeded in a 6 well plate. Cells were incubated with desired concentrations of the inhibitor for 15 min prior to induction with 10 ng/ml PMA+1 μM ionomycin. After a 3 h incubation, supernatant was collected and analyzed for IL-17 concentration using an ELISA kit. Data were analyzed using GraphPad Prism. IC50 values for each compound were determined based on the percent inhibition due to the test compound compared to the control.

h-DHODH = biological target: T1, h-DHODH (Homo sapiens, UniProt Q02127); assay: Dihydro-orotate dehydrogenase inhibition assay (U937 membrane preparations, DCIP reduction); type: biochemical; details: U937 membrane preparation; for inhibition at 0.3 µM: compound tested at 0.3 uM (footnote *)
T1 construct: endogenous in cells; host or cells: U937 cells (membrane fraction, solubilised with 1% octyl glucoside)
Experimental: Dihydro-Orotate Dehydrogenase Inhibition Assay
Dihydro-orotate dehydrogenase (DHODH) catalyzes the […] of dihydro-orotate to orotate during de novo biosynthesis of pyrimidines Inhibition of DHODH activity in U937 membrane preparations was measured by the dihydro-orotate driven reduction of 2,6 dichloroindophenol (DCIP).
U937 cells were homogenized in 20 mM Tris/HCl (pH 7.2) containing 1 mM EDTA. […] Following washes, the pellet was dissolved in 20 mM Tris/HCl containing 150 mM NaCl, 1 mM EDTA, and 1% octyl glucoside on ice for 1 h. Particulate matter was removed by centrifugation at 100000×g for 1 h at 4° C. […] The mixture was incubated at 37° C. for 4 h before measuring the change in absorbance on a plate reader (BMG Labtech., Germany) at 600 nm. Data were analyzed using GraphPad Prism. IC50 for each compound was determined based on the percent inhibition of dihydro-orotate […].

T1 sequence (Q02127 whole entry): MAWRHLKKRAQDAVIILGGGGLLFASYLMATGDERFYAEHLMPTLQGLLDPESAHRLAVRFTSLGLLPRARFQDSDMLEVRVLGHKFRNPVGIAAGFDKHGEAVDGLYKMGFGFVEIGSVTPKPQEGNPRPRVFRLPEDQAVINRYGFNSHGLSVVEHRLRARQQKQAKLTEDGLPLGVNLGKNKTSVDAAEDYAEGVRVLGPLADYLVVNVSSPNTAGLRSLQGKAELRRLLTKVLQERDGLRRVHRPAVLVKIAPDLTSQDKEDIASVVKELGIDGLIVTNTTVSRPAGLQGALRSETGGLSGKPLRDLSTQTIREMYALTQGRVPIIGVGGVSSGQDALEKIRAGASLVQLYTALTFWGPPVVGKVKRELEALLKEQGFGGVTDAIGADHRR

COc1cccc(-c2cc(Cl)c(NC(=O)c3ccccc3C(=O)O)c(Cl)c2)c1 [Example 18, 2-(3,5-Dichloro-3′-methoxybiphenyl-4-ylcarbamoyl)benzoic acid]
inhibition at 10 µM (IL-17): 12.1%
melting point: 163 to 168 °C
inhibition at 1 µM (h-DHODH; 1 uM): 62.2%
IC50 (h-DHODH): 294 nM

COc1cccc(-c2cc(F)c(NC(=O)c3nccnc3C(=O)O)c(F)c2)c1 [Example 6, 3-(3,5-Difluoro-3′-methoxybiphenyl-4-ylcarbamoyl)pyrazine-2-carboxylic acid]
inhibition at 10 µM (IL-17): 9.52%
melting point: 180.1 to 183.4 °C
inhibition at 1 µM (h-DHODH; 1 uM): 2.26%

CCSc1cccc(-c2cc(F)c(NC(=O)c3ccccc3C(=O)O)c(F)c2)c1 [Example 71, 2-[3′-(ethylthio)-3,5-difluorobiphenyl-4-ylcarbamoyl]benzoic acid]
inhibition at 10 µM (IL-17): 27.8%
melting point: 137.8 to 142.1 °C
inhibition at 1 µM (h-DHODH; 1 uM): 84.8%
IC50 (h-DHODH): 53.5 nM

O=C(O)c1ccccc1C(=O)Nc1c(F)cc(-c2ccccc2F)cc1F [Example 32, 2-(2′,3,5-Trifluorobiphenyl-4-ylcarbamoyl)benzoic acid]
inhibition at 10 µM (IL-17): 11.8%
melting point: 152.2 to 156.3 °C
inhibition at 1 µM (h-DHODH; 1 uM): 58.9%

O=C(O)c1ccccc1C(=O)Nc1ccc(-c2cccc(OC(F)(F)F)c2)cc1F [Example 22, 2-[3-Fluoro-3′-(trifluoromethoxy)biphenyl-4-ylcarbamoyl]benzoic acid]
inhibition at 10 µM (IL-17): 12.9%
melting point: 128.3 to 132.1 °C
inhibition at 1 µM (h-DHODH; 1 uM): 41.8%

CCOc1cccc(-c2cc(F)c(NC(=O)c3nccnc3C(=O)O)c(F)c2)c1 [Example 7, 3-(3,5-Difluoro-3′-ethoxybiphenyl-4-ylcarbamoyl)pyrazine-2-carboxylic acid]
inhibition at 10 µM (IL-17): 8.58%
melting point: 133.4 to 137.3 °C
inhibition at 1 µM (h-DHODH; 1 uM): 4.53%

O=C(O)c1cc(Cl)c(Cl)cc1C(=O)Nc1c(F)cc(-c2ccccc2Cl)cc1F [Example 30, 4,5-Dichloro-2-(2′-chloro-3,5-difluorobiphenyl-4-ylcarbamoyl)benzoic acid]
inhibition at 10 µM (IL-17): 10.3%
melting point: 202 to 205.5 °C
inhibition at 1 µM (h-DHODH; 1 uM): 68%

COc1cccc(-c2cc(F)c(NC(=O)c3ccccc3C(=O)O)c(F)c2)c1 [Example 1, 2-(3,5-Difluoro-3′-methoxybiphenyl-4-ylcarbamoyl)benzoic acid]
inhibition at 10 µM (IL-17): 6.13%
melting point: 168 to 173 °C
inhibition at 1 µM (h-DHODH; 1 uM): 53.3%
IC50 (h-DHODH): 741 nM

O=C(O)c1ccccc1C(=O)Nc1c(F)cc(-c2cccc(OC(F)(F)F)c2)cc1Cl [Example 39, 2-[3-Chloro-5-fluoro-3′-(trifluoromethoxy)biphenyl-4-ylcarbamoyl]benzoic acid]
inhibition at 10 µM (IL-17): 5.87%
melting point: 153 to 156.5 °C
inhibition at 1 µM (h-DHODH; 1 uM): 74.4%
IC50 (h-DHODH): 178 nM

O=C(O)c1ccccc1C(=O)Nc1c(F)cc(-c2cccc(OC(F)(F)F)c2)cc1F [Example 12, 2-[3,5-Difluoro-3′-(trifluoromethoxy)biphenyl-4-ylcarbamoyl]benzoic acid]
inhibition at 10 µM (IL-17): 2.96%
melting point: 148.2 to 151.4 °C
h-DHODH % inhibition 1 uM (h-DHODH; 1 uM): 64.47%
IC50 (h-DHODH): 205 nM

O=C(O)c1ccccc1C(=O)Nc1c(F)cc(-c2ccccc2Cl)cc1F [Example 8, 2-(2′-Chloro-3,5-difluorobiphenyl-4-ylcarbamoyl)benzoic acid]
inhibition at 10 µM (IL-17): 35.4%
melting point: 143.5 to 145.1 °C
inhibition at 1 µM (h-DHODH; 1 uM): 85.8%
IC50 (h-DHODH): 90 nM

CC(C)COc1cccc(-c2cc(F)c(NC(=O)c3ccccc3C(=O)O)c(F)c2)c1 [Example 34, 2-(3,5-Difluoro-3′-isobutoxybiphenyl-4-ylcarbamoyl)benzoic acid]
inhibition at 10 µM (IL-17): 5.96%
melting point: 112.6 to 116.4 °C
inhibition at 1 µM (h-DHODH; 1 uM): 95.8%
IC50 (h-DHODH): 62.5 nM

CCOc1cccc(-c2cc(F)c(NC(=O)c3cccc(C)c3C(=O)O)c(F)c2)c1 [Example 74, 2-(3′-ethoxy-3,5-difluorobiphenyl-4-ylcarbamoyl)-6(5)-methylbenzoic acid]
inhibition at 10 µM (IL-17): 13.8%
melting point: 138 to 140 °C
inhibition at 0.3 µM (h-DHODH): 7.14%

O=C(O)c1nccnc1C(=O)Nc1c(F)cc(-c2cccc(OCc3ccccc3)c2)cc1F [Example 9, 3-[3′-(Benzyloxy)-3,5-difluorobiphenyl-4-ylcarbamoyl]pyrazine-2-carboxylic acid]
inhibition at 10 µM (IL-17): 26.9%
melting point: 142 to 144.5 °C
inhibition at 1 µM (h-DHODH; 1 uM): 10.3%

O=C(O)c1cc(Cl)c(Cl)cc1C(=O)Nc1c(F)cc(-c2ccccc2Cl)cc1Cl [Example 27, 4,5-Dichloro-2-(2′,3-dichloro-5-fluorobiphenyl-4-ylcarbamoyl)benzoic acid]
inhibition at 10 µM (IL-17): 12.4%
melting point: 202.3 to 206.5 °C
inhibition at 1 µM (h-DHODH; 1 uM): 82.9%
IC50 (h-DHODH): 147 nM

CCOc1cccc(-c2cc(Cl)c(NC(=O)c3ccccc3C(=O)O)c(Cl)c2)c1 [Example 21, 2-(3,5-Dichloro-3′-ethoxybiphenyl-4-ylcarbamoyl)benzoic acid]
inhibition at 10 µM (IL-17): 17.8%
melting point: 135.9 to 138.2 °C
inhibition at 1 µM (h-DHODH; 1 uM): 56.4%

O=C(O)c1ccccc1C(=O)Nc1c(F)cc(-c2ccccc2)cc1F [Example 10, 2-(3,5-Difluorobiphenyl-4-ylcarbamoyl)benzoic acid]
inhibition at 10 µM (IL-17): 6.82%
melting point: 161.2 to 165.7 °C
inhibition at 1 µM (h-DHODH; 1 uM): 46.8%

CCOc1cccc(-c2ccc(NC(=O)c3ccccc3C(=O)O)c(F)c2)c1 [Example 4, 2-(3′-Ethoxy-3-fluorobiphenyl-4-ylcarbamoyl)benzoic acid]
inhibition at 10 µM (IL-17): 11.2%
melting point: 151 to 157 °C
inhibition at 1 µM (h-DHODH; 1 uM): 43%

O=C(O)c1ccccc1C(=O)Nc1ccc(-c2cccc(OC(F)(F)F)c2)cc1 [Example 88, 2-[3′-(trifluoromethoxy)biphenyl-4-ylcarbamoyl]benzoic acid]
inhibition at 10 µM (IL-17): 19.1%
melting point: 154.4 to 158.5 °C
inhibition at 0.3 µM (h-DHODH): 62.2%

CCCOc1cccc(-c2ccc(NC(=O)c3ccccc3C(=O)O)cc2)c1 [Example 81, 2-(3′-propoxybiphenyl-4-ylcarbamoyl)benzoic acid]
inhibition at 10 µM (IL-17): 23%
melting point: 152 to 154 °C
inhibition at 0.3 µM (h-DHODH): 11.2%

O=C(O)c1ccccc1C(=O)Nc1c(F)cc(-c2ccccc2F)cc1Cl [Example 20, 2-(3-Chloro-2′,5-difluorobiphenyl-4-ylcarbamoyl)benzoic acid]
inhibition at 10 µM (IL-17): 24.3%
melting point: 163 to 167 °C
inhibition at 1 µM (h-DHODH; 1 uM): 55.4%

O=C(O)c1ccccc1C(=O)Nc1c(Cl)cc(-c2ccccc2F)cc1Cl [Example 24, 2-(3,5-Dichloro-2′-fluorobiphenyl-4-ylcarbamoyl)benzoic acid]
inhibition at 10 µM (IL-17): 8.46%
melting point: 185.4 to 193.6 °C
inhibition at 1 µM (h-DHODH; 1 uM): 40.2%

CCCOc1cccc(-c2ccc(NC(=O)c3ccccc3C(=O)O)c(F)c2)c1 [Example 80, 2-(3-fluoro-3′-propoxybiphenyl-4-ylcarbamoyl)benzoic acid]
inhibition at 10 µM (IL-17): 20.1%
melting point: 116 to 119 °C
inhibition at 0.3 µM (h-DHODH): 47.6%

COc1cccc(-c2ccc(NC(=O)c3ccccc3C(=O)O)cc2)c1 [Example 87, 2-(3′-methoxybiphenyl-4-ylcarbamoyl)benzoic acid]
inhibition at 10 µM (IL-17): 20.9%
melting point: 243 to 247 °C
inhibition at 0.3 µM (h-DHODH): 30.2%

O=C(O)c1ccccc1C(=O)Nc1ccc(-c2ccccc2Cl)cc1 [Example 86, 2-(2′-chlorobiphenyl-4-ylcarbamoyl)benzoic acid]
inhibition at 10 µM (IL-17): 23.8%
melting point: 243 to 247 °C
inhibition at 0.3 µM (h-DHODH): 33.6%

CCc1cccc(-c2ccc(NC(=O)c3ccccc3C(=O)O)cc2)c1 [Example 90, 2-(3′-ethylbiphenyl-4-ylcarbamoyl)benzoic acid]
inhibition at 10 µM (IL-17): 22.4%
melting point: 178 to 182 °C
inhibition at 1 µM (h-DHODH; 1 uM): 29.4%

O=C(O)c1ccccc1C(=O)Nc1c(F)cc(-c2cccc(OC3CC3)c2)cc1F [Example 73, 2-(3′-cyclopropoxy-3,5-difluorobiphenyl-4-ylcarbamoyl)benzoic acid]
inhibition at 10 µM (IL-17): 7.86%
melting point: 125 to 127 °C
IC50 (h-DHODH): 28 nM
inhibition at 0.3 µM (h-DHODH): 85%

O=C(O)c1ccccc1C(=O)Nc1c(F)cc(-c2cccc(OCc3ccccc3)c2)cc1F [Example 13, 2-[3′-(Benzyloxy)-3,5-difluorobiphenyl-4-ylcarbamoyl]benzoic acid]
inhibition at 10 µM (IL-17): 3.43%
melting point: 140.3 to 143.4 °C
inhibition at 1 µM (h-DHODH; 1 uM): 76.4%
IC50 (h-DHODH): 150 nM

O=C(O)c1ccccc1C(=O)Nc1c(F)cc(-c2cccc(OC3CCCC3)c2)cc1F [Example 41, 2-[3′-(Cyclopentyloxy)-3,5-difluorobiphenyl-4-ylcarbamoyl]benzoic acid]
inhibition at 10 µM (IL-17): 7.16%
melting point: 153 to 156.5 °C
inhibition at 1 µM (h-DHODH; 1 uM): 72.2%
IC50 (h-DHODH): 83.4 nM
